molecular target: human NaV 1.8 (Homo sapiens, UniProt Q9Y5Y9); assay: E-VIPR assay detecting and measuring NaV inhibition properties; type: cell-based; conditions: HEK cells expressing a truncated form of human NaV 1.8; electrical stimulation, membrane potential FRET dyes; read-out: measured IC50 value in the E-VIPR Assay
Text: E-VIPR Assay Detecting and Measuring NaV Inhibition Properties
Sodium ion channels are voltage-dependent proteins that can be activated by inducing membrane voltage changes by applying electric fields. […] The instrument comprises a microtiter plate handler, an optical system for exciting the coumarin dye while simultaneously recording the coumarin and oxonol emissions, a waveform generator, a current- or voltage-controlled amplifier, and parallel electrode pairs that are inserted into assay plate wells. Under integrated computer control, this instrument passes user-programmed electrical stimulus protocols to cells within the wells of the microtiter plate.
16-20 hours prior to running the assay on E-VIPR, HEK cells expressing a truncated form of human NaV 1.8 with full channel activity were seeded into microtiter 384-well plates, pre-coated with matrigel, at a density of 25,000 cells per well. 2.5-5% KIR2.1 BacMam virus was added to the final cell suspension before seeding into cell plates. […] Cells were expanded in 5-layer CellSTACK culture chambers or cell culture flasks with vented caps, with 90-95% humidity and 5% CO2.
• Bath 1 Buffer containing 0.5% 3-cyclodextrin (made fresh prior to each use, Sigma #C4767), […] CC2-DMPE and 2 μM DiSBAC6(3). The solution was made by adding 10% Pluronic F127 stock equal to combined volumes of CC2-DMPE and DiSBAC6(3).
The compound plate was backfilled with 45 μL per well of Compound Loading Buffer resulting in a 240-fold dilution of compound following a 1:1 transfer of compound into the cell plate (see Step 6). […] This assay dilution protocol was adjusted to enable a higher dose range to be tested in the presence of HS or if the final assay volume was altered. • 2) Hexyl Dye Solution was prepared. • 3) Cell plates were prepared. On the day of the assay, the media was aspirated, and the cells were washed three times with 80 μL of Bath-1 buffer, maintaining 25 μL residual volume in each well. • 4) 25 μL per well of Hexyl Dye Solution was dispensed into the cell plates. The cells were incubated for 20 minutes at room temperature or ambient conditions in darkness. • 5) 45 μL per well of Compound Loading Buffer was dispensed into compound plates. • 6) The cell plates were washed three times with 80 μL per well of Bath-1 Buffer, leaving 25 μL of residual volume. Then 25 µL per well from compound plate was transferred to each cell plate. The mixture was incubated for 30 minutes at room temperature/ambient conditions. • 7) The cell plate containing compound was read on E-VIPR using the current-controlled amplifier to deliver stimulation wave pulses using a symmetrical biphasic waveform. […] A pre-stimulus recording was performed for each well for 0.5 seconds to obtain the un-stimulated intensities baseline. The stimulatory waveform was followed by 0.5 seconds of post-stimulation recording to examine the relaxation to the resting state. All E-VIPR responses were measured at 200 Hz acquisition rate.
The response as a function of time was reported as the ratios obtained using the following formula: […]
The data were normalized by calculating the initial (Ri) and final (Rf) ratios. These were the average ratio values during part or all of the pre-stimulation period and during sample points during the stimulation period. The fluorescence ratio (Rf/Ri) was then calculated and reported as a function of time.
Control responses were obtained by performing assays in the presence of the positive control, and in the absence of pharmacological agents (DMSO vehicle negative control). Responses to the negative (N) and positive (P) controls were calculated as above. The compound antagonist % activity A was then defined as:
[formula] • where X is the maximum amplitude of the ratio response or number of action potential peaks, at the beginning of the pulse train in the presence of test compound.

Chain of human NaV 1.8 (Q9Y5Y9 126-399 limits assumed): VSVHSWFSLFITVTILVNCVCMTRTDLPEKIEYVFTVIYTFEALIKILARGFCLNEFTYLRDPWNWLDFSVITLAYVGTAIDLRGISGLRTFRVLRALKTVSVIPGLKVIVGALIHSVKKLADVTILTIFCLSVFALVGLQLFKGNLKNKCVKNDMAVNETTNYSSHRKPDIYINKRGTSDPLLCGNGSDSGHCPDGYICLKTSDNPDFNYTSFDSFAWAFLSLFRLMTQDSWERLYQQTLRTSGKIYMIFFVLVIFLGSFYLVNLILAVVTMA
Chain of human NaV 1.8 (Q9Y5Y9 660-890 limits assumed): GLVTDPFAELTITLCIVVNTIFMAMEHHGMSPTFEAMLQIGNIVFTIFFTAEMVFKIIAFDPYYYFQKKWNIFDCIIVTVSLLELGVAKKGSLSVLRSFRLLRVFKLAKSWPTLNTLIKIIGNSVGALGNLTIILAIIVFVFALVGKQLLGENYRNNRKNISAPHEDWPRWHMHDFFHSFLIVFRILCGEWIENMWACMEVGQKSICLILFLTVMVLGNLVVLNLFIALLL
Chain of human NaV 1.8 (Q9Y5Y9 1148-1722 limits assumed): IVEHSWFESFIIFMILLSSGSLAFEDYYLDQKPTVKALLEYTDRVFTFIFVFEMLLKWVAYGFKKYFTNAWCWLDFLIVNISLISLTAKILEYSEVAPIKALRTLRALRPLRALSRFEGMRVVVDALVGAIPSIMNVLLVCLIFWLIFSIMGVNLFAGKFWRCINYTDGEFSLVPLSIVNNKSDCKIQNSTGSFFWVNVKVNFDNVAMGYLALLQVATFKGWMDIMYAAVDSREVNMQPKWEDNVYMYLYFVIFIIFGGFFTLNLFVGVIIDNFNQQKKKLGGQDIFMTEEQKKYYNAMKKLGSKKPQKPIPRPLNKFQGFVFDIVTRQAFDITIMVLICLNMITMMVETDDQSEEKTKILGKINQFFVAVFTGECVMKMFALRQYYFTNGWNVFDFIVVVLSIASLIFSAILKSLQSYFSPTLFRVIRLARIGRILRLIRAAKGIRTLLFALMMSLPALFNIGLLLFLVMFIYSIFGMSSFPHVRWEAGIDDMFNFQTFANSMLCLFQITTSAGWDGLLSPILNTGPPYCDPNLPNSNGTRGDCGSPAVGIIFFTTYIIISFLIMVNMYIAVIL

Structure (SMILES)	IC50
Cc1cc(=O)cc(-c2ccc(C(C)C)cc2C(C)C)[nH]1 [Compound 43, 2-(2,4-diisopropylphenyl)-6-methyl-1H-pyridin-4-one]	2000 to 5000 nM
Cc1cc(=O)c(C)c(-c2ccc(C3(C(F)(F)F)CC3)cc2)[nH]1 [Compound 78, 3,6-dimethyl-2-[4-[1-(trifluoromethyl)cyclopropyl]phenyl]-1H-pyridin-4-one]	2000 to 5000 nM
Cc1nc(-c2ccc(C(C)(C)C)cc2C)cc(=O)[nH]1 [Compound 83, 4-(4-tert-butyl-2-methyl-phenyl)-2-methyl-1H-pyrimidin-6-one]	2000 to 5000 nM
COc1nc2ccccc2cc1-c1cc(=O)c(C)c(C)[nH]1 [Compound 95, 6-(2-methoxy-3-quinolyl)-2,3-dimethyl-1H-pyridin-4-one]	2000 to 5000 nM
COc1cc(=O)cc(-c2ccc(C(C)(C)C)cc2C)[nH]1 [Compound 104, 2-(4-tert-butyl-2-methyl-phenyl)-6-methoxy-1H-pyridin-4-one]	2000 to 5000 nM
Cc1cc(C(C)(C)C)ccc1-c1cc(=O)c(NC(=O)[C@H](C)N)c(C)[nH]1 [Compound 156, (2S)-2-amino-N-[6-(4-tert-butyl-2-methyl-phenyl)-2-methyl-4-oxo-1H-pyridin-3-yl]propanamide]	2000 to 5000 nM
CC(=O)Nc1c(C)[nH]c(-c2ccc(C(C)(C)C)cc2C)cc1=O [Compound 157, N-[6-(4-tert-butyl-2-methyl-phenyl)-2-methyl-4-oxo-1H-pyridin-3-yl]acetamide]	500 to 2000 nM
Cc1cc(C(C)(C)C)ccc1-c1cc(=O)c(-c2cccnc2C#N)c(C)[nH]1 [Compound 172, 3-[6-(4-tert-butyl-2-methyl-phenyl)-2-methyl-4-oxo-1H-pyridin-3-yl]pyridine-2-carbonitrile]	500 to 2000 nM
Cc1cc(C(C)(C)C)ccc1-c1cc(=O)c(C2=CCN(C)CC2)c(C)[nH]1 [Compound 174, 6-(4-tert-butyl-2-methyl-phenyl)-2-methyl-3-(1-methyl-3,6-dihydro-2H-pyridin-4-yl)-1H-pyridin-4-one]	2000 to 5000 nM
Cc1cc(C(C)(C)C)c(Cl)cc1-c1cc(=O)c(-c2cn(C)c(C)n2)c(C)[nH]1 [Compound 197, 6-(4-tert-butyl-5-chloro-2-methyl-phenyl)-3-(1,2-dimethylimidazol-4-yl)-2-methyl-1H-pyridin-4-one]	500 to 2000 nM
COCn1ccnc1-c1c(C)[nH]c(-c2cc(Cl)c(C(C)(C)C)cc2C)cc1=O [Compound 201, 6-(4-tert-butyl-5-chloro-2-methyl-phenyl)-3-[1-(methoxymethyl)imidazol-2-yl]-2-methyl-1H-pyridin-4-one]	2000 to 5000 nM
Cc1cc(C(C)(C)C)ccc1-c1cc(=O)c(C2CCN(C)CC2)c(C)[nH]1 [Compound 204, 6-(4-tert-butyl-2-methyl-phenyl)-2-methyl-3-(1-methyl-4-piperidyl)-1H-pyridin-4-one]	500 to 2000 nM
Cc1cc(C(C)(C)C)ccc1-c1cc(=O)c(C2=CCNCC2)c(C)[nH]1 [Compound 205, 6-(4-tert-butyl-2-methyl-phenyl)-2-methyl-3-(1,2,3,6-tetrahydropyridin-4-yl)-1H-pyridin-4-one]	500 to 2000 nM
Cc1cc(C(C)(C)C)c(Cl)cc1-c1cc(=O)c(-c2ncc[nH]2)c(C)[nH]1 [Compound 212, 6-(4-tert-butyl-5-chloro-2-methyl-phenyl)-3-(1H-imidazol-2-yl)-2-methyl-1H-pyridin-4-one]	500 to 2000 nM

More lines, now with the values ahead:

IC50	Structure (SMILES)
500 to 2000 nM	Cc1cc(=O)cc(-c2c(C)cc(C(C)(C)C)cc2C)[nH]1 [Compound 3, 2-(4-tert-butyl-2,6-dimethyl-phenyl)-6-methyl-1H-pyridin-4-one]
500 to 2000 nM	Cc1cc(=O)c(C)c(-c2ccc(C(C)(C)C)cc2C)[nH]1 [Compound 75, 2-(4-tert-butyl-2-methyl-phenyl)-3,6-dimethyl-1H-pyridin-4-one]
500 to 2000 nM	Cc1cc(=O)c(C)c(-c2ccc(C(C)(C)C)cc2)[nH]1 [Compound 77, 2-(4-tert-butylphenyl)-3,6-dimethyl-1H-pyridin-4-one]
500 to 2000 nM	Cc1[nH]c(-c2ccc(C(C)(C)C)cc2)cc(=O)c1C [Compound 79, 6-(4-tert-butylphenyl)-2,3-dimethyl-1H-pyridin-4-one]
500 to 2000 nM	Cc1[nH]c(-c2ccc(C3(C(F)(F)F)CC3)cc2)cc(=O)c1C [Compound 82, 2,3-dimethyl-6-[4-[1-(trifluoromethyl)cyclopropyl]phenyl]-1H-pyridin-4-one]
500 to 2000 nM	Cc1cc(=O)cc(-c2ccc(C3(C(F)(F)F)CC3)cc2C)[nH]1 [Compound 96, 2-methyl-6-[2-methyl-4-[1-(trifluoromethyl)cyclopropyl]phenyl]-1H-pyridin-4-one]
500 to 2000 nM	CCOC(=O)c1c(-c2c(C)cc(C(C)(C)C)cc2C)[nH]c(C)c(C)c1=O [Compound 98, ethyl 2-(4-tert-butyl-2,6-dimethyl-phenyl)-5,6-dimethyl-4-oxo-1H-pyridine-3-carboxylate]
500 to 2000 nM	Cc1cc(C(C)(C)C)ccc1-c1cc(=O)cc(N(C)C)[nH]1 [Compound 100, 2-(4-tert-butyl-2-methyl-phenyl)-6-(dimethylamino)-1H-pyridin-4-one]
500 to 2000 nM	CCOc1c(-c2ccc(C(C)(C)C)cc2C)[nH]c(C)cc1=O [Compound 106, 2-(4-tert-butyl-2-methyl-phenyl)-3-ethoxy-6-methyl-1H-pyridin-4-one]
500 to 2000 nM	COc1c(-c2ccc(C(C)(C)C)cc2C)[nH]c(C)cc1=O [Compound 107, 2-(4-tert-butyl-2-methyl-phenyl)-3-methoxy-6-methyl-1H-pyridin-4-one]
500 to 2000 nM	Cc1cc(C(C)(C)C)c(Cl)cc1-c1cc(=O)c(S(=N)(=O)C(C)C)c(C)[nH]1 (stereo not drawn) [Compound 145, 6-(4-tert-butyl-5-chloro-2-methyl-phenyl)-3-(isopropylsulfonimidoyl)-2-methyl-1H-pyridin-4-one]
500 to 2000 nM	Cc1cc(C(C)(C)C)ccc1-c1cc(=O)c(CN)c(C)[nH]1 [Compound 154, 3-(aminomethyl)-6-(4-tert-butyl-2-methyl-phenyl)-2-methyl-1H-pyridin-4-one]
500 to 2000 nM	Cc1cc(C(C)(C)C)ccc1-c1cc(=O)c(NC(=O)[C@@H](C)N)c(C)[nH]1 [Compound 155, (2R)-2-amino-N-[6-(4-tert-butyl-2-methyl-phenyl)-2-methyl-4-oxo-1H-pyridin-3-yl]propanamide]
